Assay results as given in US20210009914A1, “NOVEL APPLICATIONS OF PULSED ELECTRIC FIELD AND E-BEAM TECHNOLOGY” (KEMIN INDUSTRIES, INC., priority 2019, published 2021).

Columns and labels:
Total Enterobacteriaceae [1] = assay: Total Enterobacteriaceae count in naturally contaminated broiler feed, antimicrobial products with/without PEF (Example 1); assay type: cell-based
Experimental: (§1) Feed materials. Pig feed, naturally contaminated with Enterobacteriaceae, was obtained from Feed Design Lab (the Netherlands). The naturally contaminated pig feed, not treated with an antimicrobial product, was diluted with mash broiler feed obtained from AVEVE until the required contamination level was obtained (Enterobacteriaceae contamination of 4 log cfu/g). After this dilution, the mash feed was mixed intensively to ensure a homogeneous contamination.
PEF treatments. PEF experiments were carried out using the PEFPilot™ System (220V, 50 Hz) at ELEA GmbH (Quakenbrück, Germany) at room temperature. The feed was stored at room temperature (20-25° C.) before treatment. An amount of 50 percent additional water (tap-water at room temperature), was added to the feed to prevent the formation of air bubbles, which increase the chance for a dielectric breakdown and arching. Before PEF treatment, the treatment chamber was filled with the feed, the feed was leveled and pressed using a plastic stick. […] Exponential decay pulses with width of 40 microseconds and frequency of 2 Hz were applied. An electric field strength of 5 kV/cm and specific energies of 12 (60 pulses), 120 (600 pulses) and 168 kJ/kg (840 pulses) were applied. The treatment chamber was rinsed after each treatment and pre-cooled in ice-water before new feed samples were added. Each PEF treatment consisted of at least two replicates. The temperature of the feed was measured just after the PEF treatment.
Application of antimicrobial products. The products were sprayed on a thin layer of the feed (portions of 300 g) by use of a nebulizer. The product Sal CURB® Ba Liquid (lot number: 1911110883) was dosed at 6 kg/T. Formic acid 85% (RM00672, lot 20000200403), the main component of Sal CURB Ba Liquid (i.e. 50% formic acid) was dosed at 3 kg/T and 6 kg/T. Sal CURB Ba Liquid also contains a mixture of different surfactants.
Test setups. The effect of the application of the antimicrobials alone on the naturally contaminated feed was tested in a separate experiment. In a first series of PEF experiments (first trial), the antimicrobial products were sprayed on the feed just after applying the PEF treatments, while for the second series of experiments (second trial) the antimicrobial products were applied on the feed before the PEF treatments.
(§2) Determination of total Enterobacteriacea level. The total Enterobacteriaceae level (TEC) of the feed samples not treated and treated with the antimicrobial products and/or PEF was determined at 24 h after PEF/product treatments. Three suspensions of each feed sample were prepared by mixing 10 g of the sample with 90 g of saline and by homogenizing the samples for 60 seconds in a Stomacher. RAPID' Enterobacteriaceae plates (Bio-Rad, 3564004) were inoculated using a spiral plate counter (Eddy Jet, IUL Instruments). The plates were incubated overnight at 37° C. for 24 h. After incubation, the colonies were counted manually. To obtain accurate results, the minimum number of colonies counted per plate was specified as 10 (a lower number gives less statistically significant results). Values below this limit, at the lowest sample dilution (100 cfu/g), were reported to a value equal to half of this limit (50 cfu/g). The colony-forming units were log-transformed prior to the statistical analyses. The microbiological data were analyzed using the Statgraphics Centurion XVI software (Statpoint Technologies, Inc., Virginia, USA). All data were subjected to one-way ANOVA and differences were separated using the least significant differences procedure. All statements of significance were based on a P-value less than 0.05, unless otherwise specified.

Total Enterobacteriaceae [2] = assay: Total Enterobacteriaceae count in naturally contaminated broiler feed, products before PEF at reduced additional water (Example 2); assay type: cell-based; details: 3 kg/T before PEF 5 kV/cm, medium 120 kJ/kg; for Log reduction: vs control of same water level
Experimental: as §1
Application of antimicrobial products. The products were sprayed on a thin layer of the feed (portions of 500 g) by use of a nebulizer. The product Sal CURB® Ba Liquid (lot number: 191111883) was dosed at 6 kg/T. Formic acid 85% (RM00672, lot 20000200403), the main component of Sal CURB Ba Liquid (i.e. 50% formic acid) was dosed at 3 kg/T and 6 kg/T. Sal CURB Ba Liquid also contains a mixture of different surfactants. After treatment, the samples were sent to ELEA GmbH (Quakenbrück, Germany) for PEF treatments.
PEF treatments. PEF experiments were carried out using the PEFPilot™ System (220V, 50 Hz) at ELEA GmbH (Quakenbrück, Germany) at room temperature. The PEF treatments were performed at 8 days after application of the antimicrobial products. The feed samples were stored at room temperature (20-25° C.) before PEF treatment. Each PEF treatment consisted of at least two replicates. Quantities of 50, 20 and 15 percent additional water (tap-water at room temperature), were added to the feed to prevent the formation of air bubbles, which increase the chance for a dielectric breakdown and arching. Before PEF treatment, the treatment chamber was filled with the feed, the feed was leveled and pressed using a plastic stick. […] Exponential decay pulses with width of 40 microseconds and frequency of 2 Hz were applied. An electric field strength of 5 kV/cm and a specific energetic level of 120 kJ/kg (600 pulses) was applied. The treatment chamber was rinsed after each treatment and pre-cooled in ice-water before new feed samples were added.
Test setups. The antimicrobial products were always applied on the feed before the PEF treatments. The different quantities of added tap-water were mixed homogeneously in the feed just before the PEF treatments. After the treatments, all feed samples were stored at room temperature.
as §2, with “products” for “products and/or PEF”, “at 10 days after product treatment. The TEC of the PEF treated samples was determined at 48” for “at 24”, “after PEF treatment.” for “after PEF/product treatments.”, “counted manually, as explained in the Internal Instruction.” for “counted manually.”

## O=CO [Formic acid]
Total Enterobacteriaceae [1]; 3 kg/T applied after PEF 5 kV/cm, high intensity 168 kJ/kg, 50% additional water
  Log (cfu/g): 3.34 h Log (cfu/g)
Total Enterobacteriaceae [1]; 3 kg/T applied after PEF 5 kV/cm, high intensity 168 kJ/kg, vs no-treatment control
  Log reduction: 0.92 log
Total Enterobacteriaceae [1]; 3 kg/T applied after PEF 5 kV/cm, low intensity 12 kJ/kg, 50% additional water
  Log (cfu/g): 3.94 de Log (cfu/g)
Total Enterobacteriaceae [1]; 3 kg/T applied after PEF 5 kV/cm, low intensity 12 kJ/kg, vs no-treatment control
  Log reduction: 0.32 log
Total Enterobacteriaceae [1]; 3 kg/T applied after PEF 5 kV/cm, medium intensity 120 kJ/kg, 50% additional water
  Log (cfu/g): 4.10 ad Log (cfu/g)
Total Enterobacteriaceae [1]; 3 kg/T applied after PEF 5 kV/cm, medium intensity 120 kJ/kg, vs no-treatment control
  Log reduction: 0.16 log
Total Enterobacteriaceae [1]; 3 kg/T applied before PEF 5 kV/cm, high intensity 168 kJ/kg, 50% additional water
  Log (cfu/g): 2.95 d Log (cfu/g)
Total Enterobacteriaceae [1]; 3 kg/T applied before PEF 5 kV/cm, high intensity 168 kJ/kg, vs no-treatment control
  Log reduction: 2.14 log
Total Enterobacteriaceae [1]; 3 kg/T applied before PEF 5 kV/cm, medium intensity 120 kJ/kg, 50% additional water
  Log (cfu/g): 3.58 c Log (cfu/g)
Total Enterobacteriaceae [1]; 3 kg/T applied before PEF 5 kV/cm, medium intensity 120 kJ/kg, vs no-treatment control
  Log reduction: 1.51 log
Total Enterobacteriaceae [1]; 3 kg/T, no PEF, 50% additional water (Table 5, trial 2)
  Log (cfu/g): 4.15 b Log (cfu/g)
Total Enterobacteriaceae [1]; 3 kg/T, no PEF, vs no-treatment control (Table 5, trial 2)
  Log reduction: 0.94 log
Total Enterobacteriaceae [1]; 3 kg/T, product alone, no PEF (Table 3)
  Log (cfu/g): 3.80 ab Log (cfu/g)
Total Enterobacteriaceae [1]; 3 kg/T, product alone, no PEF, vs untreated control (Table 3)
  Log reduction: 0.37 log
Total Enterobacteriaceae [1]; 6 kg/T applied after PEF 5 kV/cm, high intensity 168 kJ/kg, 50% additional water
  Log (cfu/g): 3.06 i Log (cfu/g)
Total Enterobacteriaceae [1]; 6 kg/T applied after PEF 5 kV/cm, high intensity 168 kJ/kg, vs no-treatment control
  Log reduction: 1.20 log
Total Enterobacteriaceae [1]; 6 kg/T applied after PEF 5 kV/cm, low intensity 12 kJ/kg, 50% additional water
  Log (cfu/g): 4.03 ade Log (cfu/g)
Total Enterobacteriaceae [1]; 6 kg/T applied after PEF 5 kV/cm, low intensity 12 kJ/kg, vs no-treatment control
  Log reduction: 0.23 log
Total Enterobacteriaceae [1]; 6 kg/T applied after PEF 5 kV/cm, medium intensity 120 kJ/kg, 50% additional water
  Log (cfu/g): 3.71 fg Log (cfu/g)
Total Enterobacteriaceae [1]; 6 kg/T applied after PEF 5 kV/cm, medium intensity 120 kJ/kg, vs no-treatment control
  Log reduction: 0.55 log
Total Enterobacteriaceae [1]; 6 kg/T applied before PEF 5 kV/cm, high intensity 168 kJ/kg, 50% additional water
  Log (cfu/g): 1.70 f^ Log (cfu/g)
Total Enterobacteriaceae [1]; 6 kg/T applied before PEF 5 kV/cm, high intensity 168 kJ/kg, vs no-treatment control
  Log reduction: 3.39 log
Total Enterobacteriaceae [1]; 6 kg/T applied before PEF 5 kV/cm, medium intensity 120 kJ/kg, 50% additional water
  Log (cfu/g): 2.25 e Log (cfu/g)
Total Enterobacteriaceae [1]; 6 kg/T applied before PEF 5 kV/cm, medium intensity 120 kJ/kg, vs no-treatment control
  Log reduction: 2.84 log
Total Enterobacteriaceae [1]; 6 kg/T, no PEF, 50% additional water (Table 5, trial 2)
  Log (cfu/g): 3.55 c Log (cfu/g)
Total Enterobacteriaceae [1]; 6 kg/T, no PEF, vs no-treatment control (Table 5, trial 2)
  Log reduction: 1.54 log
Total Enterobacteriaceae [1]; 6 kg/T, product alone, no PEF (Table 3)
  Log (cfu/g): 3.33 b Log (cfu/g)
Total Enterobacteriaceae [1]; 6 kg/T, product alone, no PEF, vs untreated control (Table 3)
  Log reduction: 0.84 log
Total Enterobacteriaceae [2]; 15% additional water
  Log (cfu/g): 2.83 c Log (cfu/g)
  Log reduction: 1.44 log
Total Enterobacteriaceae [2]; 15% additional water, listed as formic acid
  Log reduction: 1.4 log
Total Enterobacteriaceae [2]; 20% additional water
  Log (cfu/g): 2.30 d Log (cfu/g)
  Log reduction: 2.20 log
Total Enterobacteriaceae [2]; 50% additional water
  Log (cfu/g): 2.82 c Log (cfu/g)
  Log reduction: 1.60 log
